According to PMC8371902, “Phase 1 study of M2698, a p70S6K/AKT dual inhibitor, in patients with advanced cancer” (Journal of Hematology & Oncology, 2021):

Tests used:
[1] = design: method as in PMID 27186432; conditions: preclinical studies ref 21; cited from earlier work
[2] = Plasma pharmacokinetics of M2698, non-compartmental; format: in vivo, human
Protocol: Plasma PK parameters on days 1 and 15 were calculated using non-compartmental methods.

[3] = test system: phospho-S6 (pS6) in peripheral blood mononuclear cells; assay: pS6 in PBMCs by flow cytometry, PK/PD Emax model
Protocol: Pharmacodynamic biomarker analysis consisted of measuring levels of phospho-S6 (pS6) by flow cytometry in peripheral blood mononuclear cells (PBMCs) collected on cycle 1, days 1 and 15 at predose, 2, 4, and 8 h, and at predose on cycles ≥ 2, days 1, 8 and 15; and by immunohistochemistry in tumor biopsies obtained at baseline and on treatment (cycle 2, day 1; from the same tumor when possible).

[4] = test system: phospho-S6 (pS6) in tumor tissue; assay: pS6 in tumor biopsies by immunohistochemistry, PK/PD models; format: in vivo, human
Source text: Supplementary Table S7. Parameter estimates for pharmacokinetic/ pharmacodynamic models of pS6 in tumor tissue using dose and area under the curve (AUCT, calculated as dose divided by apparent clearance at time of tissue biopsy) as exposure metrics
log-linear regression model of dose – tumor pS6: y ~ slope *log(Dose)
Emax regression model of AUC – tumor pS6: y ~ (Emax *AUC) / (EC50 + AUC)

[5] = Monotherapy population PK model (two-compartment); conditions: in vivo
Source text: A monotherapy population PK model was developed, consisting of a two-compartment model with four absorption transit compartments and first-order elimination (Additional file 1: Table S5).

pS6 in tumor tissue = test system: pS6 in tumor tissue; design: method as in PMID 27186432; conditions: preclinical ref 21; cited from earlier work
[6] = day 1 single dose, monotherapy 15 mg, n=3
[7] = day 1 single dose, monotherapy 30 mg, n=3
[8] = day 1 single dose, monotherapy 60 mg, n=6
[9] = day 1 single dose, monotherapy 75 mg, n=4
[10] = day 1 single dose, monotherapy 110 mg, n=3
[11] = day 1 single dose, monotherapy 160 mg, n=5
[12] = day 1 single dose, monotherapy 200 mg, n=3
[13] = day 1 single dose, monotherapy 240 mg, n=9
[14] = day 1 single dose, monotherapy 320 mg, n=7
[15] = day 1 single dose, monotherapy 380 mg, n=4
[16] = day 15, combination with tamoxifen, M2698 80 mg, n=2
[17] = day 15, combination with tamoxifen, M2698 160 mg, n=5
[18] = day 15, combination with tamoxifen, M2698 200 mg, n=6
[19] = day 15, combination with tamoxifen, M2698 240 mg (intermittent regimen), n=4
[20] = day 15, combination with trastuzumab, M2698 80 mg, n=3
[21] = day 15, combination with trastuzumab, M2698 160 mg, n=7
[22] = day 15, monotherapy 110 mg, n=3
[23] = day 15, monotherapy 160 mg, n=5
[24] = day 15, monotherapy 200 mg, n=3
[25] = day 15, monotherapy 240 mg, n=7
[26] = day 15, monotherapy 320 mg, n=6
[27] = day 15, monotherapy 380 mg, n=2

NC(=O)c1cccc2c(N[C@H](CN3CCC3)c3ccc(Cl)c(C(F)(F)F)c3)ncnc12 [M2698]
Blood–brain barrier crossing [1]: capacity to cross the blood–brain barrier | AUC0–24, Geo mean (GeoCV%) [2, 6]: 759 (67.2) ng∙h/mL | Cmax, GeoMean (GeoCV%) [2, 6]: 53.0 (91.1) ng/mL | tmax, median (range) [2, 6]: 3.08 (2.07–5.00) hours | AUC0–24, Geo mean (GeoCV%) [2, 7]: 1480 (52.9) ng∙h/mL | Cmax, GeoMean (GeoCV%) [2, 7]: 87.3 (55.9) ng/mL | tmax, median (range) [2, 7]: 4.00 (3.97–5.17) hours | AUC0–24, Geo mean (GeoCV%) [2, 8]: 2730 (36.3) ng∙h/mL | Cmax, GeoMean (GeoCV%) [2, 8]: 177 (38.3) ng/mL | tmax, median (range) [2, 8]: 4.08 (2.05–5.00) hours | AUC0–24, Geo mean (GeoCV%) [2, 9]: 4370 (85.2) ng∙h/mL | Cmax, GeoMean (GeoCV%) [2, 9]: 269 (114.4) ng/mL | tmax, median (range) [2, 9]: 4.83 (2.98–9.50) hours | AUC0–24, Geo mean (GeoCV%) [2, 10]: 4200 (21.0) ng∙h/mL | Cmax, GeoMean (GeoCV%) [2, 10]: 246 (21.7) ng/mL | tmax, median (range) [2, 10]: 6.08 (5.98–24.3) hours | AUC0–24, Geo mean (GeoCV%) [2, 11]: 8650 (49.8) ng∙h/mL | Cmax, GeoMean (GeoCV%) [2, 11]: 543 (65.3) ng/mL | tmax, median (range) [2, 11]: 4.05 (2.15–5.23) hours | AUC0–24, Geo mean (GeoCV%) [2, 12]: 8180 (102.8) ng∙h/mL | Cmax, GeoMean (GeoCV%) [2, 12]: 472 (110.1) ng/mL | tmax, median (range) [2, 12]: 4.60 (4.07–5.02) hours | AUC0–24, Geo mean (GeoCV%) ([2]; day 1 single dose, monotherapy 240 mg, n=8 for AUC): 9200 (74.5) ng∙h/mL | Cmax, GeoMean (GeoCV%) [2, 13]: 590 (81.4) ng/mL | tmax, median (range) [2, 13]: 6.25 (4.00–24.3) hours | AUC0–24, Geo mean (GeoCV%) ([2]; day 1 single dose, monotherapy 320 mg, n=6 for AUC): 15200 (104.0) ng∙h/mL | Cmax, GeoMean (GeoCV%) [2, 14]: 802 (112.0) ng/mL | tmax, median (range) [2, 14]: 4.73 (4.00–24.1) hours | AUC0–24, Geo mean (GeoCV%) ([2]; day 1 single dose, monotherapy 380 mg, n=2 for AUC): 16500 (36.6) ng∙h/mL | Cmax, GeoMean (GeoCV%) [2, 15]: 1320 (55.0) ng/mL | tmax, median (range) [2, 15]: 6.28 (4.12–9.52) hours | AUC0–τ, Geo mean (GeoCV%) [2, 16]: 16,000 (44.7) ng∙h/mL | Accumulation ratio (Cmax), Geo mean (GeoCV%) [2, 16]: 2.31 (20.6) | Cmax, GeoMean (GeoCV%) [2, 16]: 819 (50.9) ng/mL | tmax, median (range) [2, 16]: 4.5 (4.00–5.00) hours | AUC0–τ, Geo mean (GeoCV%) [2, 17]: 22,000 (42.9) ng∙h/mL | Accumulation ratio (Cmax), Geo mean (GeoCV%) [2, 17]: 1.98 (26.6) | Cmax, GeoMean (GeoCV%) [2, 17]: 1270 (48.3) ng/mL | tmax, median (range) [2, 17]: 3.33 (2.95–5.58) hours | AUC0–τ, Geo mean (GeoCV%) [2, 18]: 27,000 (29.3) ng∙h/mL | Accumulation ratio (Cmax), Geo mean (GeoCV%) [2, 18]: 3.47 (65.7) | Cmax, GeoMean (GeoCV%) [2, 18]: 1380 (31.3) ng/mL | tmax, median (range) [2, 18]: 3.98 (3.07–10.0) hours | AUC0–τ, Geo mean (GeoCV%) [2, 19]: 20,600 (41.7) ng∙h/mL | Accumulation ratio (Cmax), Geo mean (GeoCV%) [2, 19]: 1.7 (40.9) | Cmax, GeoMean (GeoCV%) [2, 19]: 1110 (39.9) ng/mL | tmax, median (range) [2, 19]: 3.15 (2.13–4.00) hours | AUC0–τ, Geo mean (GeoCV%) [2, 20]: 7400 (34.3) ng∙h/mL | Accumulation ratio (Cmax), Geo mean (GeoCV%) [2, 20]: 2.00 (26.1) | Cmax, GeoMean (GeoCV%) [2, 20]: 405 (23.7) ng/mL | tmax, median (range) [2, 20]: 3.07 (2.03–5.58) hours | AUC0–τ, Geo mean (GeoCV%) [2, 21]: 47,200 (49.3) ng∙h/mL | Accumulation ratio (Cmax), Geo mean (GeoCV%) [2, 21]: 2.73 (31.5) | Cmax, GeoMean (GeoCV%) [2, 21]: 2560 (52.8) ng/mL | tmax, median (range) [2, 21]: 5.88 (3.05–8.08) hours | AUC0–τ, Geo mean (GeoCV%) ([2]; day 15, monotherapy 15 mg, n=3): 2540 (6.0) ng∙h/mL | Accumulation ratio (Cmax), Geo mean (GeoCV%) ([2]; day 15, monotherapy 15 mg, n=3): 2.57 (73.6) | Cmax, GeoMean (GeoCV%) ([2]; day 15, monotherapy 15 mg, n=3): 136 (16.8) ng/mL | tmax, median (range) ([2]; day 15, monotherapy 15 mg, n=3): 3.00 (2.97–7.50) hours | AUC0–τ, Geo mean (GeoCV%) ([2]; day 15, monotherapy 30 mg, n=3): 5410 (17.8) ng∙h/mL | Accumulation ratio (Cmax), Geo mean (GeoCV%) ([2]; day 15, monotherapy 30 mg, n=3): 3.19 (41.2) | Cmax, GeoMean (GeoCV%) ([2]; day 15, monotherapy 30 mg, n=3): 279 (14.5) ng/mL | tmax, median (range) ([2]; day 15, monotherapy 30 mg, n=3): 4.30 (1.93–6.02) hours | AUC0–τ, Geo mean (GeoCV%) ([2]; day 15, monotherapy 60 mg, n=5): 10,000 (47.7) ng∙h/mL | Accumulation ratio (Cmax), Geo mean (GeoCV%) ([2]; day 15, monotherapy 60 mg, n=5): 3.03 (60.4) | Cmax, GeoMean (GeoCV%) ([2]; day 15, monotherapy 60 mg, n=5): 566 (48.5) ng/mL | tmax, median (range) ([2]; day 15, monotherapy 60 mg, n=5): 5.07 (3.03–7.62) hours | AUC0–τ, Geo mean (GeoCV%) ([2]; day 15, monotherapy 75 mg, n=4): 9440 (39.6) ng∙h/mL | Accumulation ratio (Cmax), Geo mean (GeoCV%) ([2]; day 15, monotherapy 75 mg, n=4): 3.02 (3.2) | Cmax, GeoMean (GeoCV%) ([2]; day 15, monotherapy 75 mg, n=4): 533 (47.5) ng/mL | tmax, median (range) ([2]; day 15, monotherapy 75 mg, n=4): 4.05 (4.03–5.12) hours | AUC0–τ, Geo mean (GeoCV%) [2, 22]: 15,500 (46.8) ng∙h/mL | Accumulation ratio (Cmax), Geo mean (GeoCV%) [2, 22]: 3.38 (55.6) | Cmax, GeoMean (GeoCV%) [2, 22]: 831 (43.3) ng/mL | tmax, median (range) [2, 22]: 6.05 (3.00–6.07) hours | AUC0–τ, Geo mean (GeoCV%) [2, 23]: 23,700 (43.7) ng∙h/mL | Accumulation ratio (Cmax), Geo mean (GeoCV%) [2, 23]: 2.40 (36.8) | Cmax, GeoMean (GeoCV%) [2, 23]: 1300 (45.1) ng/mL | tmax, median (range) [2, 23]: 4.08 (1.93–6.00) hours | AUC0–τ, Geo mean (GeoCV%) [2, 24]: 28,400 (91.6) ng∙h/mL | Accumulation ratio (Cmax), Geo mean (GeoCV%) [2, 24]: 3.21 (63.5) | Cmax, GeoMean (GeoCV%) [2, 24]: 1520 (100.8) ng/mL | tmax, median (range) [2, 24]: 3.77 (3.50–4.05) hours | AUC0–τ, Geo mean (GeoCV%) [2, 25]: 31,300 (55.8) ng∙h/mL | Accumulation ratio (Cmax), Geo mean (GeoCV%) [2, 25]: 2.51 (77.8) | Cmax, GeoMean (GeoCV%) [2, 25]: 1920 (48.5) ng/mL | tmax, median (range) [2, 25]: 4.00 (2.95–6.10) hours | AUC0–τ, Geo mean (GeoCV%) [2, 26]: 39,700 (52.3) ng∙h/mL | Accumulation ratio (Cmax), Geo mean (GeoCV%) [2, 26]: 2.12 (67.9) | Cmax, GeoMean (GeoCV%) [2, 26]: 2110 (39.6) ng/mL | tmax, median (range) [2, 26]: 5.48 (3.57–6.08) hours | AUC0–τ, Geo mean (GeoCV%) [2, 27]: 41,400 (34.5) ng∙h/mL | Accumulation ratio (Cmax), Geo mean (GeoCV%) [2, 27]: 2.20 (97.9) | Cmax, GeoMean (GeoCV%) [2, 27]: 2490 (9.4) ng/mL | tmax, median (range) [2, 27]: 2.50 (2.00–3.00) hours | Area under the curve on day 15 ([2]; highest doses of 240–380 mg): > 30,000 ng h/mL | Pharmacokinetic profile combined with tamoxifen versus monotherapy ([2]; in vivo): similar | Accumulation on day 15 after repeated doses ([2]; monotherapy): 2.12–3.38 fold | Apparent oral clearance (CL/f) ([2]; monotherapy): ~ 6 L/h | Terminal half-life ([2]; monotherapy): ~ 30 h | Median time to maximum plasma concentration (tmax) ([2]; monotherapy, across doses): 3.08 to 6.28 h | Dose proportionality of M2698 exposure ([2]; monotherapy, single and multiple administrations): exposure increased proportionally with dose | M2698 exposure in combination with trastuzumab ([2]; versus monotherapy): relatively higher | EC50, PK/PD model of pS6 in PBMCs (plasma concentration for 50% inhibition) ([3]; NONMEM estimate): 1643 ng/mL | Emax, PK/PD model of pS6 in PBMCs ([3]; NONMEM estimate): 0.148 | Inhibition of pS6 levels in PBMCs ([3]; in vivo): dose- and concentration-dependent inhibition | AUC giving 70% inhibition of pS6 in tumor tissue ([4]; Emax model): 15,174 h.ng/mL | AUC giving 80% inhibition of pS6 in tumor tissue ([4]; Emax model): 32,087 h.ng/mL | Dose giving 70% inhibition of pS6 in tumor tissue ([4]; log-linear regression model): ~ 160 mg | Dose giving 80% inhibition of pS6 in tumor tissue ([4]; log-linear regression model): ~240 mg | Inhibition of pS6 levels in tumor tissue ([4]; paired biopsies, 28 patients): dose- and concentration-dependent inhibition | ALB on Vc, population PK estimate [5]: 0.0247 | BSA on Vc, population PK estimate [5]: 1.17 | CL (clearance), population PK estimate [5]: 7.06 L/h | KA (absorption rate constant), population PK estimate [5]: 2.02 h⁻¹ | Q (flow rate), population PK estimate [5]: 18.0 L/h | Vc (volume of distribution of the central compartment), population PK estimate [5]: 292 L | Vp (volume of distribution of the peripheral compartment), population PK estimate [5]: 53.0 L | Inhibition of pS6 in tumor tissue (pS6 in tumor tissue): dose-dependently inhibits pS6 in tumor tissue
